Where two headings read alike, the source gives them in different places.
Tests used:
Test in all cases: Kinase profiling in a biochemical assay panel (mobility shift assays and ELISA), %-inhibition at 1 μM; selectivity entropy
[1] = molecular target: panel of more than 300 wild-type and mutant kinases (313 kinase panel) (Homo sapiens, UniProt P51617)
[2] = molecular target: panel of more than 300 wild-type and mutant kinases (313 kinase panel) (Homo sapiens, UniProt P49137)
[3] = molecular target: panel of more than 300 wild-type and mutant kinases (313 kinase panel) (Homo sapiens, UniProt P45984)
[4] = molecular target: T1, panel of more than 300 wild-type and mutant kinases (313 kinase panel) (Homo sapiens, UniProt P36888)
T1 sequence (P36888 27-993): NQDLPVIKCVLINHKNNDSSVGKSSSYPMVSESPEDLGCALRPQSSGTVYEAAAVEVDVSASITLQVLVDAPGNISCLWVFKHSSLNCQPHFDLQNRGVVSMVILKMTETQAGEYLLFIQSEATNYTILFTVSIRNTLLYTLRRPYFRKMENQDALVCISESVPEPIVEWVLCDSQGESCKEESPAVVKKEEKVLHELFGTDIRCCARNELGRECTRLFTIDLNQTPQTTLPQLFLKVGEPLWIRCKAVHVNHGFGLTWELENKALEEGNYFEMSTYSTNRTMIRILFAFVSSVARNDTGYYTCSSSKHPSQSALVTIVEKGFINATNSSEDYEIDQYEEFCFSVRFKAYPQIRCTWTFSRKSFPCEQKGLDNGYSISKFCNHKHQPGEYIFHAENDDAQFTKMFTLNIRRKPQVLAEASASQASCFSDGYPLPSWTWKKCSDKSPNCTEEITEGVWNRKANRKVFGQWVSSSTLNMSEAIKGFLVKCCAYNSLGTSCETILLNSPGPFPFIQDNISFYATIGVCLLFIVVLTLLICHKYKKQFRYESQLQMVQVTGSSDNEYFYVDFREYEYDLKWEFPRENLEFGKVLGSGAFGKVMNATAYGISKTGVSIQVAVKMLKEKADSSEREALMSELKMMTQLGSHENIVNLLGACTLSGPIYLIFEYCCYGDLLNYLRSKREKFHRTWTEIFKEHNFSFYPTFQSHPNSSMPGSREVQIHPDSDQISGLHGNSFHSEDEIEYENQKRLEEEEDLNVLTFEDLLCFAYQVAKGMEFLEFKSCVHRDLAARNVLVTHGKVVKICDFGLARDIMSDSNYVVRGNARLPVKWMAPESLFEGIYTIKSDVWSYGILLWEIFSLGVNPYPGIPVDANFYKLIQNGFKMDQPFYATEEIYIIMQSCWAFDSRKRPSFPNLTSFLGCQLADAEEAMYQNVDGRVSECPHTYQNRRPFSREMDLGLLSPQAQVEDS

[5] = molecular target: panel of more than 300 wild-type and mutant kinases (313 kinase panel) (Homo sapiens, UniProt P68400)
[6] = molecular target: panel of more than 300 wild-type and mutant kinases (313 kinase panel) (Homo sapiens, UniProt P29597)
[7] = molecular target: panel of more than 300 wild-type and mutant kinases (313 kinase panel) (Homo sapiens, UniProt P07947)
[8] = molecular target: panel of more than 300 wild-type and mutant kinases (313 kinase panel) (Homo sapiens, UniProt P22607)
[9] = molecular target: panel of more than 300 wild-type and mutant kinases (313 kinase panel) (Homo sapiens, UniProt Q9Y463)
[10] = molecular target: panel of more than 300 wild-type and mutant kinases (313 kinase panel) (Homo sapiens, UniProt P10721, T670I)
[11] = kinase MAPKAPK2, compound at 1 μM
[12] = kinase DYRK1B, compound at 1 μM
[13] = kinase KIT(T670I), compound at 1 μM

panel of more than 300 wild-type and mutant kinases (313 kinase panel) (Homo sapiens, UniProt P07947), sequence (P07947 whole entry, change not shown): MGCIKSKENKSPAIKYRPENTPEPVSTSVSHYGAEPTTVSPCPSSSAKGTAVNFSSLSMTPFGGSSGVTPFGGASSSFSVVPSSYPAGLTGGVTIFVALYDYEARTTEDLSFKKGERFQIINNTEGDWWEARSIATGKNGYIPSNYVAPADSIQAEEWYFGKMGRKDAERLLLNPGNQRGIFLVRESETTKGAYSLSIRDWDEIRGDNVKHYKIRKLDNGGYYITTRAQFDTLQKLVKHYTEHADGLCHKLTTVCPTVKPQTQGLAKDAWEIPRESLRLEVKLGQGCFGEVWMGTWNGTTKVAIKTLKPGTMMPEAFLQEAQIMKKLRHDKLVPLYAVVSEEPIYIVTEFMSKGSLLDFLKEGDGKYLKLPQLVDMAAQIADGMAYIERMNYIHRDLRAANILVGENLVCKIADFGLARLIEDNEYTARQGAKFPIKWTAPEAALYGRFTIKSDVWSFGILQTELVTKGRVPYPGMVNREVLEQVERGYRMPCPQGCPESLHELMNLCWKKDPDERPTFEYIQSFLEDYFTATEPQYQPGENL
panel of more than 300 wild-type and mutant kinases (313 kinase panel) (Homo sapiens, UniProt P10721, T670I), sequence (P10721 26-976 T670I): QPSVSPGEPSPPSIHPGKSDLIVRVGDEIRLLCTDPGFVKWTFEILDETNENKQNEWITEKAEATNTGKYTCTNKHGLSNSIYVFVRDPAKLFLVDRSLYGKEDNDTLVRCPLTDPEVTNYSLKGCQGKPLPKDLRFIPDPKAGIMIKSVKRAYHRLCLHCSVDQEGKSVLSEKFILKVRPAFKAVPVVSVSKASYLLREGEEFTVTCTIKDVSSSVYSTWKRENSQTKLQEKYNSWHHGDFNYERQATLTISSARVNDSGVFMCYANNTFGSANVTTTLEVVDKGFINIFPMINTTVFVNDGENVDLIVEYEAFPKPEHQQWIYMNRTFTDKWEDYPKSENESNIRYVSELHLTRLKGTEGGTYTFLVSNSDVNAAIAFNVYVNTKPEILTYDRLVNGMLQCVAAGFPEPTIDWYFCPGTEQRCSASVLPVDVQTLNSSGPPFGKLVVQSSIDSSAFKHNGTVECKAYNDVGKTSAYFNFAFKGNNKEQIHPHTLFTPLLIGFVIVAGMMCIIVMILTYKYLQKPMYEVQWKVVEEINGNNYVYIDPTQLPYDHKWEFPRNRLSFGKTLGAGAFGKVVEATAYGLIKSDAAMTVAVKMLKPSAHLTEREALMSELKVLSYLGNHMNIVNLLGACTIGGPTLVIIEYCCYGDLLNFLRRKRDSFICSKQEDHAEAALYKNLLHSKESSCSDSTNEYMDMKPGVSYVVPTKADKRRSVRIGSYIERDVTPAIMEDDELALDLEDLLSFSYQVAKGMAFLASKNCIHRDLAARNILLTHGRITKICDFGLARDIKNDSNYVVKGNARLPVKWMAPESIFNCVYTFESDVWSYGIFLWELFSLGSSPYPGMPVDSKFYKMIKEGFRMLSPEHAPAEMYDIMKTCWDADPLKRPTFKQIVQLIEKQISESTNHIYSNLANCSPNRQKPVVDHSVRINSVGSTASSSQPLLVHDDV
panel of more than 300 wild-type and mutant kinases (313 kinase panel) (Homo sapiens, UniProt P22607), sequence (P22607 23-806, change not shown): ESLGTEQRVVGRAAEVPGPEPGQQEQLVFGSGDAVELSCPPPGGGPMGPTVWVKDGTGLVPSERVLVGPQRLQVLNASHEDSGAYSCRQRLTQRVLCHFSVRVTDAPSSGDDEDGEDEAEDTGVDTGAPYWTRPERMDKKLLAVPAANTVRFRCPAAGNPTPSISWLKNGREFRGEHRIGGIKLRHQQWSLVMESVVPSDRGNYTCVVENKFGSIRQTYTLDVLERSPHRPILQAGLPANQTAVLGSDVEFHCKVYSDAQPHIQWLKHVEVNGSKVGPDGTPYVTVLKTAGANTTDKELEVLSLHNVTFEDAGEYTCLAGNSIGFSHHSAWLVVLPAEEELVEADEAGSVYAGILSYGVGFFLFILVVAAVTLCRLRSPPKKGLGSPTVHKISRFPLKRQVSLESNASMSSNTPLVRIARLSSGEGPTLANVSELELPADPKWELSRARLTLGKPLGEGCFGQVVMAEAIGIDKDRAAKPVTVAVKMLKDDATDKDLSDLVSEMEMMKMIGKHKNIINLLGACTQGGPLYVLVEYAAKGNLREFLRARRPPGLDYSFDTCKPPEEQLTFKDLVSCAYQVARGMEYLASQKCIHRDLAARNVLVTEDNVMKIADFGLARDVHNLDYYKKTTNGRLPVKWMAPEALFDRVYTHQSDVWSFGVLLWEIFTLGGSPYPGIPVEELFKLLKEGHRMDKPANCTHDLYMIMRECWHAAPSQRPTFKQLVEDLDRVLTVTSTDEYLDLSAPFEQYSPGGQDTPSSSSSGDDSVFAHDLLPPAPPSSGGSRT
panel of more than 300 wild-type and mutant kinases (313 kinase panel) (Homo sapiens, UniProt P45984), sequence (P45984 whole entry, change not shown): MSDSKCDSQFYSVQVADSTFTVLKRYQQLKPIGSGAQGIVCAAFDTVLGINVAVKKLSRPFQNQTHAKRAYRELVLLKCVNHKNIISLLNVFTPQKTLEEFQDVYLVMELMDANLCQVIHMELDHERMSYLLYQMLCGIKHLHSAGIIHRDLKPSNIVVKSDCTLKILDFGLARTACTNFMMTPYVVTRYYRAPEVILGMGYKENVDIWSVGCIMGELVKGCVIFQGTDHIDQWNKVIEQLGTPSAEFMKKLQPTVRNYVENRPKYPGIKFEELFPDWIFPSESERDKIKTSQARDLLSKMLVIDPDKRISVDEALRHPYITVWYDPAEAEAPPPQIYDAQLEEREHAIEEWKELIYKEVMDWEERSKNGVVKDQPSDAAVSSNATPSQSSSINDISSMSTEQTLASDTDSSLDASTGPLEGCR
panel of more than 300 wild-type and mutant kinases (313 kinase panel) (Homo sapiens, UniProt P29597), sequence (P29597 whole entry, change not shown): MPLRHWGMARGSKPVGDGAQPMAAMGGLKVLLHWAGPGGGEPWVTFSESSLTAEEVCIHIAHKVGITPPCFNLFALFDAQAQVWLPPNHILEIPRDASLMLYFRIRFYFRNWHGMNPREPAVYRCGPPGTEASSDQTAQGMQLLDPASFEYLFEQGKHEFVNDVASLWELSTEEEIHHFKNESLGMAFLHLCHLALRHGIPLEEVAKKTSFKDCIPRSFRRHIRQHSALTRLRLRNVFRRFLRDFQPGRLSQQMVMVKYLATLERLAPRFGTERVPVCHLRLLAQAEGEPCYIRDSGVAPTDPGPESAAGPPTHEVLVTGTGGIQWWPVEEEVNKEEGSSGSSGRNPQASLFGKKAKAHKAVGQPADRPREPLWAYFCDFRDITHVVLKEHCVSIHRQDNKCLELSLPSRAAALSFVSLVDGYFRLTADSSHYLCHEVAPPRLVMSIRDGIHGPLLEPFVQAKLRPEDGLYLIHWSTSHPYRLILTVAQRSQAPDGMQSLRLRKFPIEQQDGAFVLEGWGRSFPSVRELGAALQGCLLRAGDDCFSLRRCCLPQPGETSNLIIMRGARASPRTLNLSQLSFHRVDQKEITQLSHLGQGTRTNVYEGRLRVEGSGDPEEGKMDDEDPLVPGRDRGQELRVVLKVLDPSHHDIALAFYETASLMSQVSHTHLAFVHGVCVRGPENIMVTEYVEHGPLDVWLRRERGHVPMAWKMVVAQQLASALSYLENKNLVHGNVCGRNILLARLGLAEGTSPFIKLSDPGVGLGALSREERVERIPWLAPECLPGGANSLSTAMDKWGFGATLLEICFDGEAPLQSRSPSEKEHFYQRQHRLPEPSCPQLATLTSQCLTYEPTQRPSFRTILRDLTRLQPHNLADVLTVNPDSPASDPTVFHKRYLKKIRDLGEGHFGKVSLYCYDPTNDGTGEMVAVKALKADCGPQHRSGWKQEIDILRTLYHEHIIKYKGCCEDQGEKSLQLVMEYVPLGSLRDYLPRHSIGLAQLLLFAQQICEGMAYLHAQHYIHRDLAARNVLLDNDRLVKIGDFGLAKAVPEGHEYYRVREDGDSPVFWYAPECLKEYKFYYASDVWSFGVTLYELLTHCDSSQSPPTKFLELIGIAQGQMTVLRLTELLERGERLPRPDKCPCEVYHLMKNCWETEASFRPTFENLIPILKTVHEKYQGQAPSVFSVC
panel of more than 300 wild-type and mutant kinases (313 kinase panel) (Homo sapiens, UniProt P49137), sequence (P49137 whole entry, change not shown): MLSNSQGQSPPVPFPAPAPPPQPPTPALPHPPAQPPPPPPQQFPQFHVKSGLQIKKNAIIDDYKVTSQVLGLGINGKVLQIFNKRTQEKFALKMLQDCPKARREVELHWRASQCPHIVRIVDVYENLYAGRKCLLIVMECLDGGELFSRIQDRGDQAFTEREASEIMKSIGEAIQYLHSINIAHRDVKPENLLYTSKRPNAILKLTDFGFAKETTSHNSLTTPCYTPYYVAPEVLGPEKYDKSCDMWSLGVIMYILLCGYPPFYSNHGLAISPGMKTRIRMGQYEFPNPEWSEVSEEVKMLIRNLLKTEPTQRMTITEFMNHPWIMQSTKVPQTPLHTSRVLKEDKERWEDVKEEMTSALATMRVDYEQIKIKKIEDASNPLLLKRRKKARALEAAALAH
panel of more than 300 wild-type and mutant kinases (313 kinase panel) (Homo sapiens, UniProt Q9Y463), sequence (Q9Y463 whole entry, stated change not applied): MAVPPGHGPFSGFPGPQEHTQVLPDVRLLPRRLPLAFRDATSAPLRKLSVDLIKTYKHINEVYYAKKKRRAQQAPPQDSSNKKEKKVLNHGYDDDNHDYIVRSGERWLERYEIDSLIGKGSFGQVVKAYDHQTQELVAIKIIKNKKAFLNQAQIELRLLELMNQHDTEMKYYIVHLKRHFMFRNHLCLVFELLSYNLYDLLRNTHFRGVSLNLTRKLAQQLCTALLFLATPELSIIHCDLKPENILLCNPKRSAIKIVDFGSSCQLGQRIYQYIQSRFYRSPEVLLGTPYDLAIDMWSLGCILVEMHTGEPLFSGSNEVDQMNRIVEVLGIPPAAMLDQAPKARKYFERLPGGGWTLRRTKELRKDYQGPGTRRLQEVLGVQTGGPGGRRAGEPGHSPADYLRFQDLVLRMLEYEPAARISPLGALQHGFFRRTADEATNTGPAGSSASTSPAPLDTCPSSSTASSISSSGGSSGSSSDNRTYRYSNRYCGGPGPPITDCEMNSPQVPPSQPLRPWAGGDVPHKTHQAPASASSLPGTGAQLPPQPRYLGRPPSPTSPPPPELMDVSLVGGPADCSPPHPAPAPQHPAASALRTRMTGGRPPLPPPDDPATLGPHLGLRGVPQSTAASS

Row | Compound | %-inhibition of IRAK1 ([1]; kinase IRAK1, compound at 1 μM) [%] | %-inhibition of MAPKAPK2 [2, 11] [%] | %-inhibition of JNK2 ([3]; kinase JNK2, compound at 1 μM) [%] | %-inhibition of FLT3 ([4]; kinase FLT3, compound at 1 μM) [%] | %-inhibition, CK2α1/β ([5]; kinase CK2α1/β, 1 μM compound) [%] | %-inhibition of TYK2 ([6]; kinase TYK2, compound at 1 μM) [%] | %-inhibition of YES ([7]; kinase YES, compound at 1 μM) [%] | %-inhibition of FGFR3 ([8]; kinase FGFR3, compound at 1 μM) [%] | %-inhibition of DYRK1B [9, 12] [%] | %-inhibition of KIT(T670I) [10, 13] [%] | %-inhibition of KIT(T670I) ([10]; 1 µM) [%] | %-inhibition of FLT3 ([4]; 1 µM) [%] | %-inhibition of YES ([7]; 1 µM) [%] | %-inhibition, CK2α1/β ([5]; 1 µM) [%] | %-inhibition of IRAK1 ([1]; 1 µM) [%] | %-inhibition of MAPKAPK2 ([2]; 1 µM) [%] | %-inhibition of JNK2 ([3]; 1 µM) [%] | %-inhibition of TYK2 ([6]; 1 µM) [%] | %-inhibition of FGFR3 ([8]; 1 µM) [%] | %-inhibition of DYRK1B [9] [%]
1 | CO[C@H]1C[C@@H]2CC[C@@H](C)[C@@](O)(O2)C(=O)C(=O)N2CCCC[C@H]2C(=O)O[C@H]([C@H](C)C[C@@H]2CC[C@@H](OC(=O)C(C)(CO)CO)[C@H](OC)C2)CC(=O)[C@H](C)/C=C(\C)[C@@H](O)[C@@H](OC)C(=O)[C@H](C)C[C@H](C)/C=C/C=C/C=C/1C [temsirolimus] | 13 | -17 | -4.61 | 5 | -6.65 | -6.58 | -7 | -5 | -11 | -4.27 |  |  |  |  |  |  |  |  |  | 
2 | CNC(=O)c1cc(Oc2ccc(NC(=O)Nc3ccc(Cl)c(C(F)(F)F)c3)c(F)c2)ccn1 [regorafenib] | 16 | -21 | 57 | 68 | -9 | -3.68 | 62 | 97 | -7.4 | 101 |  |  |  |  |  |  |  |  |  | 
3 | CO[C@H]1C[C@@H]2CC[C@@H](C)[C@@](O)(O2)C(=O)C(=O)N2CCCC[C@H]2C(=O)O[C@H]([C@H](C)C[C@@H]2CC[C@@H](OCCO)[C@H](OC)C2)CC(=O)[C@H](C)/C=C(\C)[C@@H](O)[C@@H](OC)C(=O)[C@H](C)C[C@H](C)/C=C/C=C/C=C/1C [everolimus] | 12 | -18 | -5.37 | 2.25 | -4.26 | -7 | 0 | -9 | -8 | -2.56 |  |  |  |  |  |  |  |  |  | 
4 | COc1cc2nccc(Oc3ccc(NC(=O)C4(C(=O)Nc5ccc(F)cc5)CC4)cc3)c2cc1OC [cabozantinib] | 14 | -17 | 4 | 91 | -2.76 | -3.68 | 90 | 8 | -5 | 100 |  |  |  |  |  |  |  |  |  | 
5 | Cc1nc(Nc2ncc(C(=O)Nc3c(C)cccc3Cl)s2)cc(N2CCN(CCO)CC2)n1 [dasatinib] | 2.75 |  |  |  | -1.7 |  |  |  |  |  |  |  |  |  |  |  |  |  |  | 
6 | COc1cc2c(Nc3ccc(Br)cc3F)ncnc2cc1OCC1CCN(C)CC1 [vandetanib] | 46 | -20 | -4 | 90 | -7 | -7 | 100 |  | -2.71 |  |  |  |  |  |  |  |  |  |  | 
7 | CC(C)(C)c1nc(-c2cccc(NS(=O)(=O)c3c(F)cccc3F)c2F)c(-c2ccnc(N)n2)s1 [dabrafenib] | -48 |  | -0.947 | 41 |  | 10 |  | 4.27 | 29 | 1.7 |  |  |  |  |  |  |  |  |  | 
8 | Cc1ccc(Nc2nccc(N(C)c3ccc4c(C)n(C)nc4c3)n2)cc1S(N)(=O)=O [pazopanib] | 8 | -2.44 |  |  | -3 | 5.31 | 68 |  | -3 |  | 68 |  |  |  |  |  |  |  |  | 
9 | N#CC[C@H](C1CCCC1)n1cc(-c2ncnc3[nH]ccc23)cn1 [ruxolitinib] | 50 | -18 | -6 |  | -6 |  |  | 15 | 8 | -0.512 |  | 18 | 24 |  |  |  |  |  |  | 
10 | C[C@@H](Oc1cc(-c2cnn(C3CCNCC3)c2)cnc1N)c1c(Cl)ccc(F)c1Cl [crizotinib] |  | -17 | -2.59 |  |  | 21 | 65 | 43 | -3 | 64 |  |  |  | -6.39 |  |  |  |  |  | 
11 | CCCS(=O)(=O)Nc1ccc(F)c(C(=O)c2c[nH]c3ncc(-c4ccc(Cl)cc4)cc23)c1F [vemurafenib] | 10 | -16 | -0.0632 | 10 | -5.39 | 6 | 74 | 15 | -1.74 | 5.29 |  |  |  |  |  |  |  |  |  | 
12 | CS(=O)(=O)CCNCc1ccc(-c2ccc3ncnc(Nc4ccc(OCc5cccc(F)c5)c(Cl)c4)c3c2)o1 [lapatinib] | 3 |  | -8 | -3.74 | -1.7 | -10 | 26 | 0.327 | 3 |  | 0 |  |  |  |  |  |  |  |  | 
13 | C#Cc1cccc(Nc2ncnc3cc(OCCOC)c(OCCOC)cc23)c1 [erlotinib] |  |  |  |  |  |  |  |  |  |  | 14 |  | 51 | 0 | -1.65 | 4.42 | 13 | -2.7 | 63 | -28
14 | COc1cc(Nc2c(C#N)cnc3cc(OCCCN4CCN(C)CC4)c(OC)cc23)c(Cl)cc1Cl [bosutinib] | 12 |  |  | 77 |  | -3.37 | 97 |  | -5 | 7 |  |  |  |  |  |  |  |  |  | 
15 | CCN(CC)CCNC(=O)c1c(C)[nH]c(/C=C2\C(=O)Nc3ccc(F)cc32)c1C [sunitinib] | 90 |  |  |  | -21 |  | 99 | 97 |  |  |  |  |  |  |  |  |  |  |  | 
16 | Cc1ccc(C(=O)Nc2ccc(CN3CCN(C)CC3)c(C(F)(F)F)c2)cc1C#Cc1cnc2cccnn12 [ponatinib] | 79 |  |  | 99 |  | 66 | 101 | 101 | 2 |  |  |  |  |  |  |  |  |  |  | 

Source: publication PMC3961306, “Comparison of the Cancer Gene Targeting and Biochemical Selectivities of All Targeted Kinase Inhibitors Approved for Clinical Use” (PLoS ONE, 2014)
